According to patent US12649750B2, “Macrocyclic compounds, compositions, and methods of using thereof” (Sionna Therapeutics Inc., priority 2022, dated 2026):

What was measured:
CFTR = target: T1, CFTR (Homo sapiens, UniProt P13569, DEL508-508); assay: TECC24 AUC fold over DMSO @10 μM, CFTR-mediated transepithelial chloride transport in CF-HBE cells; assay type: cell-based; settings: test agent AUC divided by DMSO vehicle AUC, primary CF-HBE cells, ΔF508 homozygous donor, 48 hours incubation
T1 construct: Primary human bronchial epithelial cells from a ΔF508 homozygous CF donor; host or cells: primary human bronchial epithelial cells (CF-HBE), ΔF508 homozygous donor
Summary of the method: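 Value is ratio of test-agent to DMSO AUC of equivalent transepithelial Cl− current, integrated from forskolin (10 μM) stimulation to CFTR inhibitor-172 (20 μM) block, with benzamil 10 μM present. CF-HBE (ΔF508/ΔF508) cultures had 48 h compound exposure at 10 μM, 36.5° C before recording.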

NBD1 = target: T2, NBD1 (Homo sapiens, UniProt P13569); assay: Aggregation analysis using differential static light scattering (DSLS), thermal stability of NBD1 (ΔTagg); assay type: binding; settings: ΔTagg versus DMSO control, NBD1 0.2 mg/ml
T2 construct: Purified recombinant NBD1 was produced using previously described methods; made in house
Summary of the method: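 Stabilisation is measured as the shift in aggregation onset of recombinant NBD1 (0.2 mg/ml, 2 mM ATP, 5 mM MgCl2, pH7.6) exposed to compound. Images are taken every 0.5° C. while heating at 1° C. per minute, and the inflection-point Tagg is corrected by the DMSO mean.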

T1 sequence (P13569 with tags, fused parts or gaps DEL508-508): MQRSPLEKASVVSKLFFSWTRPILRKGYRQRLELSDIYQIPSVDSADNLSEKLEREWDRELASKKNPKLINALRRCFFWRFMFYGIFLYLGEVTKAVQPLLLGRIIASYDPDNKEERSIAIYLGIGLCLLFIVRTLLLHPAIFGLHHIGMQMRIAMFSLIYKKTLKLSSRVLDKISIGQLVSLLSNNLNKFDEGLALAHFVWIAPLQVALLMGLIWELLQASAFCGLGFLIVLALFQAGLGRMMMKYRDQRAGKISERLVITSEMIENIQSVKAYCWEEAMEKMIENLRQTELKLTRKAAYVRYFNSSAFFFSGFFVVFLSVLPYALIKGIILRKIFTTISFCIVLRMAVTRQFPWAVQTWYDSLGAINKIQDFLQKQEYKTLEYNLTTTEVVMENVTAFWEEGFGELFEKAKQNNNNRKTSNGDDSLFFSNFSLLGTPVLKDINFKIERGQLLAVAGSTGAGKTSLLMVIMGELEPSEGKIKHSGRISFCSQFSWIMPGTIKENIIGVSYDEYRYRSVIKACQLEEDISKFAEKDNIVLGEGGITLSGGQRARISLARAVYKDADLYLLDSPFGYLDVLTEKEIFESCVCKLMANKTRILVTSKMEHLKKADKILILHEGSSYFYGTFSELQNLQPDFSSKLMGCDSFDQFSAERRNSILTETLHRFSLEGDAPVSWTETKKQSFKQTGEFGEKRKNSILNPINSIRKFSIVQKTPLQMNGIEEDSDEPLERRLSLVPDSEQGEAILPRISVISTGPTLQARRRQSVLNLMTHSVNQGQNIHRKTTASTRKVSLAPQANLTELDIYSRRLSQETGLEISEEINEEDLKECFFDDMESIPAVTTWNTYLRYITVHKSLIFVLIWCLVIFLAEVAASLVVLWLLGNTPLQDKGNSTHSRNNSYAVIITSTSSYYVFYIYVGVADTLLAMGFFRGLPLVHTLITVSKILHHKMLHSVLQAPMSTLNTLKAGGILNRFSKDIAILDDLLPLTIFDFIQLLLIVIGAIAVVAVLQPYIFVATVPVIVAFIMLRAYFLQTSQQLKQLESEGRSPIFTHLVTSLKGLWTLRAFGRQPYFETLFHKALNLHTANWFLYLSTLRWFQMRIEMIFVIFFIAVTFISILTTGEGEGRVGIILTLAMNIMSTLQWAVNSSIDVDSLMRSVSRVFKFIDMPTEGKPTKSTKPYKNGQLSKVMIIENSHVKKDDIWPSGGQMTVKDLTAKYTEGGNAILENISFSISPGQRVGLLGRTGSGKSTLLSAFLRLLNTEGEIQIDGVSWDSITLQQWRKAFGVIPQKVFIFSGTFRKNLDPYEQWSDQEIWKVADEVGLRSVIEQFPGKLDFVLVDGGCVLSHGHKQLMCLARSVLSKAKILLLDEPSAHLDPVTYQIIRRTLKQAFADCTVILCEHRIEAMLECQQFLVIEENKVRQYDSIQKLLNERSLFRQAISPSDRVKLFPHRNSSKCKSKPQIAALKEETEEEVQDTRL
T2 sequence (P13569 423-646 limits assumed): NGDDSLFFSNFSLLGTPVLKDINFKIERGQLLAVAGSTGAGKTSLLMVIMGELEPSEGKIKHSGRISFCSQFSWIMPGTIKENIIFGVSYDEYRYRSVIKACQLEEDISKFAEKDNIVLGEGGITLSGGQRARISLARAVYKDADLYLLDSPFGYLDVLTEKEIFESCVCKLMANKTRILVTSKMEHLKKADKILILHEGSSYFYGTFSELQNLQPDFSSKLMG

CC(Cc1cccc(C2(C)CCCC3(CC3)CS(=O)(=O)CCc3c(c(F)cc4[nH]ccc34)Oc3ccc(F)c(c3)-c3nc2nn3C)c1)C(=O)O (single isomer, unassigned) [Compound 13A, 3-[3-(22,28-difluoro-3,6-dimethyl-12,12-dioxo-spiro[24-oxa-12lambda6-thia-3,4,19,30-tetrazapentacyclo[23.3.1.12,5.015,23.016,20]triaconta-1(29),2(30),4,15,17,20,22,25,27-nonaene-10,1′-cyclopropane]-6-yl)phenyl]-2-methyl-propanic Acid]
TECC (AUC, 10 μM) (CFTR): B (a value between 12-20 is marked “B”) | DSLS 3D (100 μM ΔT) (NBD1): C (a value greater than 10 °C and less than or equal to 25 °C is marked “C”)

CC(Cc1cccc(C2(C)CCCC3(CC3)CS(=O)(=O)CCc3c(c(F)cc4[nH]ccc34)Oc3ccc(F)c(c3)-c3nc2nn3C)c1)C(=O)O (single isomer, unassigned) [Compound 13B, 3-[3-(22,28-difluoro-3,6-dimethyl-12,12-dioxo-spiro[24-oxa-12lambda6-thia-3,4,19,30-tetrazapentacyclo[23.3.1.12,5.015,23.016,20]triaconta-1(29),2(30),4,15,17,20,22,25,27-nonaene-10,1′-cyclopropane]-6-yl)phenyl]-2-methyl-propanic Acid]
TECC (AUC, 10 μM) (CFTR): C (a value between 20 and 80 is marked “C”) | DSLS 3D (100 μM ΔT) (NBD1): A (an ΔTagg value less than or equal to 5 °C is marked “A”)

[2H]C([2H])([2H])C1(c2cccc(/C=C/C(=O)O)c2)CCCC(C)(C)CS(=O)(=O)CCc2c(c(F)cc3[nH]ccc23)Oc2ccc(F)c(c2)-c2nc1nn2C (single isomer, unassigned) [Compound 15A, (E)-3-[3-[22,28-difluoro-3,10,10-trimethyl-12,12-dioxo-6-(trideuteriomethyl)-24-oxa-12lambda6-thia-3,4,19,30-tetrazapentacyclo[23.3.1.12,5.015,23.016,20]triaconta-1(29),2(30),4,15,17,20,22,25,27-nonaen-6-yl]phenyl]prop-2-enoic Acid]
TECC (AUC, 10 μM) (CFTR): A (a TECC value less than 12 is marked “A”) | DSLS 3D (100 μM ΔT) (NBD1): C (a value greater than 10 °C and less than or equal to 25 °C is marked “C”)

[2H]C([2H])([2H])C1(c2cccc(/C=C/C(=O)O)c2)CCCC(C)(C)CS(=O)(=O)CCc2c(c(F)cc3[nH]ccc23)Oc2ccc(F)c(c2)-c2nc1nn2C (single isomer, unassigned) [Compound 15B, (E)-3-[3-[22,28-difluoro-3,10,10-trimethyl-12,12-dioxo-6-(trideuteriomethyl)-24-oxa-12lambda6-thia-3,4,19,30-tetrazapentacyclo[23.3.1.12,5.015,23.016,20]triaconta-1(29),2(30),4,15,17,20,22,25,27-nonaen-6-yl]phenyl]prop-2-enoic Acid]
TECC (AUC, 10 μM) (CFTR): A (a TECC value less than 12 is marked “A”) | DSLS 3D (100 μM ΔT) (NBD1): B (a value above 5 °C and less than or equal to 10 °C is marked “B”)

[2H]C([2H])([2H])C1(c2cccc(/C=C(\C)C(=O)O)c2)CCCC(C)(C)CS(=O)(=O)CCc2c(c(F)cc3[nH]ccc23)Oc2ccc(F)c(c2)-c2nc1nn2C (single isomer, unassigned) [Compound 16A, (E)-3-[3-[22,28-difluoro-3,10,10-trimethyl-12,12-dioxo-6-(trideuteriomethyl)-24-oxa-12lambda6-thia-3,4,19,30-tetrazapentacyclo[23.3.1.12,5.015,23.016,20]triaconta-1(29),2(30),4,15,17,20,22,25,27-nonaen-6-yl]phenyl]-2-methyl-prop-2-enoic acid]
TECC (AUC, 10 μM) (CFTR): A (a TECC value less than 12 is marked “A”) | DSLS 3D (100 μM ΔT) (NBD1): A (an ΔTagg value less than or equal to 5 °C is marked “A”)

[2H]C([2H])([2H])C1(c2cccc(/C=C(\C)C(=O)O)c2)CCCC(C)(C)CS(=O)(=O)CCc2c(c(F)cc3[nH]ccc23)Oc2ccc(F)c(c2)-c2nc1nn2C (single isomer, unassigned) [Compound 16B, (E)-3-[3-[22,28-difluoro-3,10,10-trimethyl-12,12-dioxo-6-(trideuteriomethyl)-24-oxa-12lambda6-thia-3,4,19,30-tetrazapentacyclo[23.3.1.12,5.015,23.016,20]triaconta-1(29),2(30),4,15,17,20,22,25,27-nonaen-6-yl]phenyl]-2-methyl-prop-2-enoic acid]
TECC (AUC, 10 μM) (CFTR): A (a TECC value less than 12 is marked “A”) | DSLS 3D (100 μM ΔT) (NBD1): C (a value greater than 10 °C and less than or equal to 25 °C is marked “C”)

C/C(=C\c1cc(F)cc(C2(C)CCCC(C)(C)CS(=O)(=O)CCc3c(c(F)c(F)c4[nH]ccc34)Oc3ccc(F)c(c3)-c3nc2nn3C)c1)C(=O)O (single isomer, unassigned) [Compound 17A, (E)-3-(3-fluoro-5-((Z)-26,46,47-trifluoro-11,9,9,13-tetramethyl-7,7-dioxido-11H,41H-3-oxa-7-thia-4(5,4)-indola-1(5,3)-triazola-2(1,3)-benzenacyclotridecaphane-13-yl)phenyl)-2-methylacrylic acid]
TECC (AUC, 10 μM) (CFTR): A (a TECC value less than 12 is marked “A”) | DSLS 3D (100 μM ΔT) (NBD1): B (a value above 5 °C and less than or equal to 10 °C is marked “B”)

C/C(=C\c1cc(F)cc(C2(C)CCCC(C)(C)CS(=O)(=O)CCc3c(c(F)c(F)c4[nH]ccc34)Oc3ccc(F)c(c3)-c3nc2nn3C)c1)C(=O)O (single isomer, unassigned) [Compound 17B, (E)-3-(3-fluoro-5-((Z)-26,46,47-trifluoro-11,9,9,13-tetramethyl-7,7-dioxido-1I1H,41H-3-oxa-7-thia-4(5,4)-indola-1(5,3)-triazola-2(1,3)-benzenacyclotridecaphane-13-yl)phenyl)-2-methylacrylic acid]
TECC (AUC, 10 μM) (CFTR): A (a TECC value less than 12 is marked “A”) | DSLS 3D (100 μM ΔT) (NBD1): C (a value greater than 10 °C and less than or equal to 25 °C is marked “C”)

[2H]C([2H])([2H])C1(c2cccc(CC(C)C(=O)O)c2F)CCCC(C)(C)CS(=O)(=O)CCc2c(c(F)cc3[nH]ccc23)Oc2ccc(F)c(c2)-c2nc1nn2C (single isomer, unassigned) [Compound 18A, 3-[3-[22,28-difluoro-3,10,10-trimethyl-12,12-dioxo-6-(trideuteriomethyl)-24-oxa-12lambda6-thia-3,4,19,30-tetrazapentacyclo[23.3.1.12,5.015,23.016,20]triaconta-1(29),2(30),4,15,17,20,22,25,27-nonaen-6-yl]-2-fluoro-phenyl]-2-methyl-propanoic acid]
TECC (AUC, 10 μM) (CFTR): A (a TECC value less than 12 is marked “A”) | DSLS 3D (100 μM ΔT) (NBD1): B (a value above 5 °C and less than or equal to 10 °C is marked “B”)

[2H]C([2H])([2H])C1(c2cccc(CC(C)C(=O)O)c2F)CCCC(C)(C)CS(=O)(=O)CCc2c(c(F)cc3[nH]ccc23)Oc2ccc(F)c(c2)-c2nc1nn2C (single isomer, unassigned) [Compound 18B, 3-[3-[22,28-difluoro-3,10,10-trimethyl-12,12-dioxo-6-(trideuteriomethyl)-24-oxa-12lambda6-thia-3,4,19,30-tetrazapentacyclo[23.3.1.12,5.015,23.016,20]triaconta-1(29),2(30),4,15,17,20,22,25,27-nonaen-6-yl]-2-fluoro-phenyl]-2-methyl-propanoic acid]
TECC (AUC, 10 μM) (CFTR): B (a value between 12-20 is marked “B”) | DSLS 3D (100 μM ΔT) (NBD1): C (a value greater than 10 °C and less than or equal to 25 °C is marked “C”)
